Results reported in patent US9044454B2, “Regulation of microvasculature occlusion” (NORTHWESTERN UNIVERSITY, priority 2010, dated 2015).

Legend:
[1] = test system: U87 cancer cells (glioma model) tumor in mice; experiment: Inhibition of recanalization in U87 tumors embolized with microspheres; type: in vivo
Experimental: Mice cerebral vasculatures were embolized by intravascular infusion with either (15 micron microspheres+2 mg/ml ML-7 solution) or (15 micron microspheres+vehicle) followed by daily intra-peritoneal injection of ML-7. 14 days later brain tissues were collected and vessels were labeled with fluorescein lectin. The proportion of recanalized occlusions was assessed from 50 randomly selected microsphere in each group.
U87 cancer cells, which model glioma, were implanted in mice to create a tumor. Tumors were embolized by intravascular infusion with either (15 micron microspheres+2 mg/ml ML-7 solution) or (15 micron microspheres+vehicle). 7 days later brain tissues were collected and vessels were labeled with anti CD 31 antibodies. Cell death marker caspase 3 was labeled with anti caspase 3 antibody. Without ML-7 to inhibit extravasation of emboli, individual emboli cause a moderate amount of caspase upregulation and tumor blood vessels are recanalized re-establishing blood flow to the tumor. […] The proportion of recanalized occlusions was assessed for each group.

[2] = test system: mice embolized with fibrin clots or microspheres (cerebral microvasculature); experiment: Measurement of embolus extravasation in MMP 2/9 inhibitor injected embolized mice; type: in vivo, mouse
Excerpt: To induce cerebral embolization fluorescently conjugated fibrin clots, cholesterol emboli (8-20 μm in diameter) or polystyrene microspheres (10 or 15 μm in diameter) were infused through the mouse internal carotid artery. Emboli were imaged in fixed tissues by confocal microscopy after vessel labeling by I.V. injection of FITC-lycopersicom esculentum, thioflavin-S or immunolabeled with anti-PECAM-1, collagen IV or ZO-1 antibodies. Emboli were also imaged overtime in vivo by transcranial two-photon microscopy (TPM) in mice expressing GFP in endothelial cells (Tie2-GFP) or wild type mice injected with thioflavin-S I.V. Blood flow velocity was recorded by line scan TPM imaging to verify microvascular occlusion and reestablishment of flow. […] Quantification of extravasation efficiency was performed from confocal images in fixed brain slices and in a subset of experiments from in vivo TPM time-lapse images. Matrix metalloprotease 2/9 (MMP2/9) activity was measured in areas adjacent to emboli using fluorescent in situ zymography methods. […] Perivascular hypoxia was detected by administration and immunohistochemical detection of hypoxyprobe. Dendritic spine density was quantified in confocal image stacks of fixed brain slices from mice expressing YFP in a subset of pyramidal neurons. […]

[3] = 15 micron microspheres + 2 mg/ml ML-7 solution vs vehicle, FIG. 3

Structure (SMILES): O=S(=O)(c1cccc2c(I)cccc12)N1CCCNCC1 [ML-7]
- cell death marker Caspase-3 within the cancer ([1]; 15 micron microspheres + 2 mg/ml ML-7 solution vs microspheres + vehicle, intravascular infusion, 7 days): broad upregulation
- extravasated emboli [1, 3]: less extravasated emboli
- proportion of recanalized occlusions (occluded vessels re-canalized) [1, 3]: fewer of occluded vessels had been re-canalized

Structure (SMILES): O=S(=O)(CC1CS1)c1ccc(Oc2ccccc2)cc1 (centres unmarked) [SB-3CT]
- extravasation of clot fragments ([2]; fibrin clot-embolized mice, SB-3CT 20 mg/kg/day i.p. vs saline, 4 days): marked reduction
- microsphere extravasation ([2]; microsphere-embolized mice, SB-3CT i.p. daily 2, 10, 20 mg/kg/day or acutely 40 mg/kg vs saline, 14 days post-embolization): substantial reduction
